Reference: the kinase profiling compilation of Christmann-Franck et al. (2016)

Assays:
Assay in all cases: radiometric filter-binding kinase assay, Kinaseprofiler
ACVR1B (human) = ACVR1B (human) (UniProt P36896); settings: compound 1.0 µM; ATP 10 µM
BMX (human) = BMX (human) (UniProt P51813); settings: compound 1.0 µM; ATP 45 µM
BTK (human) = BTK (human) (UniProt Q06187); settings: compound 1.0 µM; ATP 200 µM
CAMK1 (human) = CAMK1 (human) (UniProt Q14012); settings: compound 1.0 µM; ATP 200 µM
CDC42BPA (human) = CDC42BPA (human) (UniProt Q5VT25); settings: compound 1.0 µM; ATP 45 µM
CDK3 CCNE1 (human) = CDK3 CCNE1 (human) (UniProt Q00526+P24864); settings: compound 1.0 µM; ATP 200 µM
CDK5 CDK5R1 p25 (human) = CDK5 CDK5R1 p25 (human) (UniProt Q00535+Q15078); settings: compound 1.0 µM; ATP 15 µM
CDK7 CCNH MNAT1 (human) = CDK7 CCNH MNAT1 (human) (UniProt P50613+P51948+P51946); settings: compound 1.0 µM; ATP 90 µM
CSNK2A2 (human) = CSNK2A2 (human) (UniProt P19784); settings: compound 1.0 µM; ATP 10 µM
DAPK2 (human) = DAPK2 (human) (UniProt Q9UIK4); settings: compound 1.0 µM; ATP 10 µM
DAPK2 (human), sequence (Q9UIK4 whole entry, looked up): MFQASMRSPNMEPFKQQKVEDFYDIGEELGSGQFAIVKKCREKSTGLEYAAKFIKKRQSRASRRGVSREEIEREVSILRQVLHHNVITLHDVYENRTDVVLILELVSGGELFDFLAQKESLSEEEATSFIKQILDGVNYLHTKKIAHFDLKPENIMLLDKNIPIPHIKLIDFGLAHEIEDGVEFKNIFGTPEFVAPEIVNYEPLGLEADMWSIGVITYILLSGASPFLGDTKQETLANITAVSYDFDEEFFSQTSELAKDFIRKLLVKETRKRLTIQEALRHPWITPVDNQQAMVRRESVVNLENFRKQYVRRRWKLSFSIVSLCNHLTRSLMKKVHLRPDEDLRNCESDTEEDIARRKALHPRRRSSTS

DMPK (human) = DMPK (human) (UniProt Q09013); settings: compound 1.0 µM; ATP 10 µM
DMPK (human), sequence (Q09013 whole entry, looked up): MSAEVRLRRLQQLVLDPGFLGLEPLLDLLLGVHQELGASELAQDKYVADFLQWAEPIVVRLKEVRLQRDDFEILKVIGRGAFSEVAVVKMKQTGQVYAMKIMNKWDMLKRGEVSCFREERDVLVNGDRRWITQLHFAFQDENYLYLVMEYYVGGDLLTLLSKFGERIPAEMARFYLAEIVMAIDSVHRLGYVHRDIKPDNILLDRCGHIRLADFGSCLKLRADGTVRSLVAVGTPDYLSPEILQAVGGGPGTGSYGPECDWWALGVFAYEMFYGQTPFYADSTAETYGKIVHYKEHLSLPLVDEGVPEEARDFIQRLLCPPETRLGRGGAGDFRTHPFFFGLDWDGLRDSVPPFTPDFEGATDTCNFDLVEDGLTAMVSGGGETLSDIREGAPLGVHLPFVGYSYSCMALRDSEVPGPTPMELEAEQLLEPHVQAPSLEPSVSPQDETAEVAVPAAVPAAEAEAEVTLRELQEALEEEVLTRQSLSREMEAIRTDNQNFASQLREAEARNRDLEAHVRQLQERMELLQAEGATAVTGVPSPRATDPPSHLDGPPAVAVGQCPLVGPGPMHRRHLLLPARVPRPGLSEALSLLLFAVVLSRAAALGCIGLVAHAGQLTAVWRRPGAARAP

[1] = tested on: EGFR (human), P00533 [L861Q]; settings: compound 1.0 µM; ATP 10 µM
EPHA4 (human) = EPHA4 (human) (UniProt P54764); settings: compound 1.0 µM; ATP 15 µM
[2] = tested on: GSK3A (human), P49840 [S449A]; settings: compound 1.0 µM; ATP 10 µM
IRAK1 (human) = IRAK1 (human) (UniProt P51617); settings: compound 1.0 µM; ATP 45 µM
KDR (human) = KDR (human) (UniProt P35968); settings: compound 1.0 µM; ATP 90 µM
LIMK1 (human) = LIMK1 (human) (UniProt P53667); settings: compound 1.0 µM; ATP 15 µM
MAP2K4 (mouse) = settings: compound 1.0 µM; accession and sequence are those of the human protein
MAPK8 (human) = MAPK8 (human) (UniProt P45983); settings: compound 1.0 µM; ATP 45 µM
MAPK8 (human), sequence (P45983 whole entry, looked up): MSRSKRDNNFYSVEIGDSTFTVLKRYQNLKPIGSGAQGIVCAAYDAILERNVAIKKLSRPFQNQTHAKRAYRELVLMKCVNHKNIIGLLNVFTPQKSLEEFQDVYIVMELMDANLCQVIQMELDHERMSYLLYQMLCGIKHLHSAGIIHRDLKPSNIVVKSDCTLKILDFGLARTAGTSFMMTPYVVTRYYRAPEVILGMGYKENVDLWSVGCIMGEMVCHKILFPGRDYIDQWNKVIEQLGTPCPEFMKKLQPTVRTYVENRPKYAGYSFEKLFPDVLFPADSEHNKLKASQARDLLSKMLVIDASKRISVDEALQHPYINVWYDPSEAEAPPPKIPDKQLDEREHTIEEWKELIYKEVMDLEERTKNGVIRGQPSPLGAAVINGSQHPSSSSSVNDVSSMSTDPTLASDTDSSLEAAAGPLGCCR

MYLK (human) = MYLK (human) (UniProt Q15746); settings: compound 1.0 µM; ATP 70 µM
NEK7 (human) = NEK7 (human) (UniProt Q8TDX7); settings: compound 1.0 µM; ATP 45 µM
PAK3 (human) = PAK3 (human) (UniProt O75914); settings: compound 1.0 µM; ATP 120 µM
PAK4 (human) = PAK4 (human) (UniProt O96013); settings: compound 1.0 µM; ATP 10 µM
PASK (human) = PASK (human) (UniProt Q96RG2); settings: compound 1.0 µM; ATP 15 µM
PDGFRB (human) = PDGFRB (human) (UniProt P09619); settings: compound 1.0 µM; ATP 200 µM
PIM2 (human) = PIM2 (human) (UniProt Q9P1W9); settings: compound 1.0 µM; ATP 15 µM
PRKCB2 (human) = PRKCB2 (human) (UniProt P05771); settings: compound 1.0 µM; ATP 10 µM
PRKD2 (human) = PRKD2 (human) (UniProt Q9BZL6); settings: compound 1.0 µM; ATP 155 µM
PRKX (human) = PRKX (human) (UniProt P51817); settings: compound 1.0 µM; ATP 200 µM
RPS6KA4 KD1 KD2 (human) = RPS6KA4 KD1 KD2 (human) (UniProt O75676); settings: compound 1.0 µM; ATP 45 µM
RPS6KA5 KD1 KD2 (human) = RPS6KA5 KD1 KD2 (human) (UniProt O75582); settings: compound 1.0 µM; ATP 90 µM
SRPK3 (human) = SRPK3 (human) (UniProt Q9UPE1); settings: compound 1.0 µM; ATP 15 µM
STK10 (human) = STK10 (human) (UniProt O94804); settings: compound 1.0 µM; ATP 200 µM
STK10 (human), sequence (O94804 whole entry, looked up): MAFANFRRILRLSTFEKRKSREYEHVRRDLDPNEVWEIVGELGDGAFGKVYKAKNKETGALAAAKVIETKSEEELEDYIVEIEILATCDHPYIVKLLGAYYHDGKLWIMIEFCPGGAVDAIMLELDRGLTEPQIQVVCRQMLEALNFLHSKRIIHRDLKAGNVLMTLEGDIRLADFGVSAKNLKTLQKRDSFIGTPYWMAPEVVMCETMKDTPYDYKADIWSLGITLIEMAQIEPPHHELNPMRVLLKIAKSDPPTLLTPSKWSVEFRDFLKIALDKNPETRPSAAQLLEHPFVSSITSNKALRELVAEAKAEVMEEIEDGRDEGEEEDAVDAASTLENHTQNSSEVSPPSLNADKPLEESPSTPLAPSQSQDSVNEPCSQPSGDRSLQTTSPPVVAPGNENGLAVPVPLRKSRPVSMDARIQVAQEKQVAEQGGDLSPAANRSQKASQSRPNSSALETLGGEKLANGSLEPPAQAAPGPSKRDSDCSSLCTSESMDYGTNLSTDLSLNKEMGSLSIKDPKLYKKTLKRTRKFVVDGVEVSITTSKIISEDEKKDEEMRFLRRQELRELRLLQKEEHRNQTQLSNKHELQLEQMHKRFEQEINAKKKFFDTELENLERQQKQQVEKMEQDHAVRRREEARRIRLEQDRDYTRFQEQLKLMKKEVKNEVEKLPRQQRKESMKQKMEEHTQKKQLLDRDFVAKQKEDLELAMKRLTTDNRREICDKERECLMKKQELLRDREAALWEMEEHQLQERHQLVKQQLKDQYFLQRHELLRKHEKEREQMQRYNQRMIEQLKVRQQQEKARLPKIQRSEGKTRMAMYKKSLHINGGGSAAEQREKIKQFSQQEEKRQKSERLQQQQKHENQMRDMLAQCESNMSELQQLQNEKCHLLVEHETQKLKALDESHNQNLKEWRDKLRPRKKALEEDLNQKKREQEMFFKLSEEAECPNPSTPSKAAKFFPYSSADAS

STK11 (human) = STK11 (human) (UniProt Q15831); settings: compound 1.0 µM; ATP 155 µM
SYK (human) = SYK (human) (UniProt P43405); settings: compound 1.0 µM; ATP 15 µM
TSSK2 (human) = TSSK2 (human) (UniProt Q96PF2); settings: compound 1.0 µM; ATP 15 µM
TSSK2 (human), sequence (Q96PF2 whole entry, looked up): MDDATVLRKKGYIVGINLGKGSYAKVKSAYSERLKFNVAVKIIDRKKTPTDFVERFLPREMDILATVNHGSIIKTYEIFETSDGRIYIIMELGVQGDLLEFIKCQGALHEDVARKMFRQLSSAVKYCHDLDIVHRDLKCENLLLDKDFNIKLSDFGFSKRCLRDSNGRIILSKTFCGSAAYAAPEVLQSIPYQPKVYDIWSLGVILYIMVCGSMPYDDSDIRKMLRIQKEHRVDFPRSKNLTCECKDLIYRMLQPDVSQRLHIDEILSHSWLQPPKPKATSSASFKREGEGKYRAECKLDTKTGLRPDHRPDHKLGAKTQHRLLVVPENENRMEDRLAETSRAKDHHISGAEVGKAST

TYRO3 (human) = TYRO3 (human) (UniProt Q06418); settings: compound 1.0 µM; ATP 45 µM
TYRO3 (human), sequence (Q06418 whole entry, looked up): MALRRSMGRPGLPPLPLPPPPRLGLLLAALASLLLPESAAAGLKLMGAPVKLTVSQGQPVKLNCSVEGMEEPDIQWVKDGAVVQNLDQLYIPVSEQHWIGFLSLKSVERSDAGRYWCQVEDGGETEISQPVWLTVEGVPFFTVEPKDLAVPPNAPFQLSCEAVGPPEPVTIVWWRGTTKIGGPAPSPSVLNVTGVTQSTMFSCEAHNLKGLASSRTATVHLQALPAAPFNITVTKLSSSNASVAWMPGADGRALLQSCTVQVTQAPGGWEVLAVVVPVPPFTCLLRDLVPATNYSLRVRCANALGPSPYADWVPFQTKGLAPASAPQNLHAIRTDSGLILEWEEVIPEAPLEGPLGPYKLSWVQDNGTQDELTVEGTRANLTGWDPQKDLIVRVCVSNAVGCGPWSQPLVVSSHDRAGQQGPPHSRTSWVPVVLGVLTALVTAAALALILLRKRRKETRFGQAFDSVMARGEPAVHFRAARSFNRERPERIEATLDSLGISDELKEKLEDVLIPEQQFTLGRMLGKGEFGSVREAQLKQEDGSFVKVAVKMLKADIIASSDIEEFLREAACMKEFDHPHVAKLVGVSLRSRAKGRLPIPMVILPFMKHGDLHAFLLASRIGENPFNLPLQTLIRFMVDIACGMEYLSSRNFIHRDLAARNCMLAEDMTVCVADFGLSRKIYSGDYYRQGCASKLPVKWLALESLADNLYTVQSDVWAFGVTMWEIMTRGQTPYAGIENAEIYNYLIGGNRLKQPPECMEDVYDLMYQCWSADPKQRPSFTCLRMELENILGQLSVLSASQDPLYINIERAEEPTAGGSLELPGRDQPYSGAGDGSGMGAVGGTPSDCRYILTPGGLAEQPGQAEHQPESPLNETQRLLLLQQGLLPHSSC

YES1 (human) = YES1 (human) (UniProt P07947); settings: compound 1.0 µM; ATP 45 µM
YES1 (human), sequence (P07947 whole entry, looked up): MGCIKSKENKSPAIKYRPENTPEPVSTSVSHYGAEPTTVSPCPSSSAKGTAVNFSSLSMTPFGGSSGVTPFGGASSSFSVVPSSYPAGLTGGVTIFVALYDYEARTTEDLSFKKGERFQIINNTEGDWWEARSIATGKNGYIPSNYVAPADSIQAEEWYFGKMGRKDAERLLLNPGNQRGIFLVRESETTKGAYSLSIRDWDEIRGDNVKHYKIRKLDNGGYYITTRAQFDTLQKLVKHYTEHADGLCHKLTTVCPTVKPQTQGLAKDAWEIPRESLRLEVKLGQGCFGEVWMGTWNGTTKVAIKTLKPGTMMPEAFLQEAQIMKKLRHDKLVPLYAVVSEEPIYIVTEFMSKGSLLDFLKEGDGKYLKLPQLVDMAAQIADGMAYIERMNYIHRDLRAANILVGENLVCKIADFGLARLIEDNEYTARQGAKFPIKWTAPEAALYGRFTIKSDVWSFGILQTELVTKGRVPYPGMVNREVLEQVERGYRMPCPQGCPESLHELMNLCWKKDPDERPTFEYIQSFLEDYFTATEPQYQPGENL

BMX (human), sequence (P51813 whole entry, looked up): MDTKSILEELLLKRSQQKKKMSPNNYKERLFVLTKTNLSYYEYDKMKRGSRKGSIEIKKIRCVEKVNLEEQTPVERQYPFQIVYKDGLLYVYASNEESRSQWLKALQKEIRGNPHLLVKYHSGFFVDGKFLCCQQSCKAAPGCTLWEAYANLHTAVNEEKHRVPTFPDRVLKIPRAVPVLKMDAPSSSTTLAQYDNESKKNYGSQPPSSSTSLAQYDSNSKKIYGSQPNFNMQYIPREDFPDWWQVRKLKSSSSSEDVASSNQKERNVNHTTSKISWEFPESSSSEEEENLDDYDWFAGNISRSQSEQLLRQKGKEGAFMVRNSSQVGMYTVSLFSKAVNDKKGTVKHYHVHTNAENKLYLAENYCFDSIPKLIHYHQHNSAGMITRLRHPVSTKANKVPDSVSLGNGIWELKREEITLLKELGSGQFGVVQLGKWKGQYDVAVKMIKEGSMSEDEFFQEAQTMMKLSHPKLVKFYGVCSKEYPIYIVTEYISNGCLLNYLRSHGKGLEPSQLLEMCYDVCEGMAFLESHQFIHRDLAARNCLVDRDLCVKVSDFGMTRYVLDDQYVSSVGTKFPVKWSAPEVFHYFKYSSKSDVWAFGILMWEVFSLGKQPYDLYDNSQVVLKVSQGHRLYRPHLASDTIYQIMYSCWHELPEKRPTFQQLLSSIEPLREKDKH

residual activity (ACVR1B (human)): 100% | residual activity (BMX (human)): 73% | residual activity (BTK (human)): 83% | residual activity (CAMK1 (human)): 110% | residual activity (CDC42BPA (human)): 107% | residual activity (CDK3 CCNE1 (human)): 100% | residual activity (CDK5 CDK5R1 p25 (human)): 88% | residual activity (CDK7 CCNH MNAT1 (human)): 101% | residual activity (CSNK2A2 (human)): 123% | residual activity (DAPK2 (human)): 91% | residual activity (DMPK (human)): 101% | residual activity [1]: 97% | residual activity (EPHA4 (human)): 103% | residual activity [2]: 86% | residual activity (IRAK1 (human)): 83% | residual activity (KDR (human)): 10% | residual activity (LIMK1 (human)): 72% | residual activity (MAP2K4 (mouse)): 87% | residual activity (MAPK8 (human)): 98% | residual activity (MYLK (human)): 61% | residual activity (NEK7 (human)): 112% | residual activity (PAK3 (human)): 99% | residual activity (PAK4 (human)): 94% | residual activity (PASK (human)): 91% | residual activity (PDGFRB (human)): 77% | residual activity (PIM2 (human)): 98% | residual activity (PRKCB2 (human)): 105% | residual activity (PRKD2 (human)): 109% | residual activity (PRKX (human)): -12% | residual activity (RPS6KA4 KD1 KD2 (human)): 121% | residual activity (RPS6KA5 KD1 KD2 (human)): 101% | residual activity (SRPK3 (human)): 83% | residual activity (STK10 (human)): 78% | residual activity (STK11 (human)): 134% | residual activity (SYK (human)): 94% | residual activity (TSSK2 (human)): 83% | residual activity (TYRO3 (human)): 97% | residual activity (YES1 (human)): 71%
SMILES: CN(C)S(=O)(=O)Nc1ccc2ccc3ncc(-c4cnn(C)c4)cc3c(=O)c2c1
